Assay results taken from patent US8338622B2, “Heterocyclic compound” (Takeda Pharmaceutical Company Limited, priority 2008, dated 2012).

Tests used:
RBP4 = biological target: T1, RBP4 (Mus musculus, UniProt Q00724); test: Blood RBP4 lowering action in C57BL/6J mouse, single oral administration; format: in vivo; settings: plasma, mean±SD n=5; for RBP4 (% of initial/Control) 0 hr later: 0 hr value before administration, 50 mg/kg oral; for RBP4 (% of initial/Control) 4 hr later: 4 hr after 50 mg/kg oral; for RBP4 (% of initial/Control) 7 hr later: 7 hr after 50 mg/kg oral; for RBP4 (% of initial/Control) 24 hr later: 24 hr after 50 mg/kg oral
T1 construct: from tissue; host or cells: plasma of male C57BL/6J mice (Charles River Laboratories Japan Inc.)
Experimental: A blood RBP4 lowering action of the compound of the present invention was evaluated using C57BL/6J mouse.
Male 7- to 15-week-old C57BL/6J mice (Charles River Laboratories Japan Inc.) were individually bred for acclimation for 4-6 days under conditions with free access to CE-2 solid food (CLEA Japan, Inc.), and grouped based on the body weight (5 per group). The next day of grouping, blood samples were collected from the orbital venous plexus, and plasma was separated (0 hr value). Thereafter, the test compounds (Examples 1, 13, 15, 16, 17, 27 and 34) were orally administered at a dose of 50 mg/kg (solvent: 0.5% methylcellulose solution (10 mL/kg)). At 4, 7 and 24 hr after administration of the compounds, blood samples were collected from the orbital venous plexus, and plasma was separated. A 0.5% methylcellulose solution (10 mL/kg) was orally administered to the control group.
The RBP4 level of the collected plasma was measured by ELISA. RBP4 was quantified by the following steps using a rabbit, anti-mouse RBP4 polyclonal antibody (Hokudo Co., Ltd). A 96 well ELISA plate was coated with 50 μg/ml of the antibody (100 μL) and stood at 4° C. overnight. After blocking with BlockAce (DAINIPPON PHARMACEUTICAL CO., LTD.), mouse RBP4 or a sample (100 μL) was added and the plate was stood at room temperature for 2 hr. After washing with PBS-0.5% Tween 20, HRP-labeled anti-RBP4 antibody (prepared by labeling RBP4 polyclonal antibody (Hokudo Co., Ltd) with HRP (DOJINDO LABORATORIES)) was added by 100 μL, and the plate was stood at room temperature for 1 hr. After washing, TMB (Dako Cytomations) was added, and the mixture was stood at room temperature for 20 min to allow color development, and the reaction was quenched with 2N sulfuric acid. Thereafter, the absorbance at A450 nm was measured on a platereader. The amount of change from the initial value of each animal was determined as a relative value from the control group (% of initial/Control) at each time point. The results are shown in the following in mean±standard deviation (n=5).

Zucker fa/fa rats = test: Hypoglycemic action in Zucker fa/fa rats (Experimental Example 4B); format: in vivo, rat; settings: 10 mg/kg oral for 2 weeks, mean±SD n=5; for blood glucose level / RBP4: 24 hr after final administration; for glycated hemoglobin change (%): value after minus before administration; for RBP4: plasma
Experimental: A hypoglycemic action of the compound of the present invention was evaluated using Zucker fa/fa rats.
Male 25-week-old Zucker fa/fa rats (Takeda Pharmaceutical Company Limited) were acclimation bred in groups on CE-2 solid food (CLEA Japan, Inc.) up to 12 weeks of age, thereafter on high-fat diet D06110702 (LSG Corporation), with free access to food. At 25 weeks of age, the rats were grouped based on the body weight, blood glucose level, glycated hemoglobin level and blood RBP4 level (5 per group). Then, test compounds (Examples 16 and 17) were orally administered at a dose of 10 mg/kg (solvent: 0.5% methylcellulose solution (3 mL/kg)) for 2 weeks. At 24 hr from the final administration of the compounds, blood samples were collected from the tail vein, and plasma was separated. Using the collected plasma, (1) RBP4 concentration, (2) glycated hemoglobin level and (3) blood glucose level were measured. (1) was quantified according to the protocol described in Experimental Example 3. (2) was measured using Tosoh Corporation automatic glycohamoglobin analyzer (HLC-723 GHbV A1c2.2 or HLC-723G7 GHbV A1c2.2), and (3) was measured using Hitachi full-automatic analyzer (7070 or 7080).
A 0.5% methylcellulose solution (3 ml/kg) was orally administered to the control group. The results are shown below in mean±standard deviation (n=5). In the following Table, glycated hemoglobin change is obtained by subtracting the value before administration from that after administration.

human RBP4 = biological target: T2, human RBP4 (Homo sapiens, UniProt P02753); test: Binding assay by Retinol-RBP4-TTR ELISA (human type ELISA); settings: retinol 0.5 μM, read-out: human RBP4 binding inhibitory activity (IC50 nM)
T2 construct: the culture supernatant containing secreted/expressed hRBP4-His was recovered; His tag (His6, read from the HISENU oligo); made in house; host or cells: FreeStyle293 expression system (Invitrogen), secreted into the culture supernatant
Experimental: The action of the compound of the present invention to inhibit the binding between RBP4, and retinol and TTR was evaluated using the Retinol-RBP4-TTR ELISA (human type ELISA) system shown below.
The binding assay was performed by an ELISA system (Retinol-RBP4-TTR ELISA) for detecting retinol-RBP4-TTR conjugate by streptavidin-biotin reaction.
His-tagged human RBP4 used was prepared in the above-mentioned 1C.
Biotinylated human TTR used was prepared in the above-mentioned 1E.
Streptavidin (20 μl) (10 μg/ml Streptavidin type II (Wako Pure Chemical Industries, Ltd.), 10 mM Tris-HCl (pH 7.5), 10 mM NaCl) was added to a 384 well black maxisorp plate (Nunc), and the plate was subjected to centrifugation (1000 rpm, 1 min) and coated overnight at 4° C. The plate was washed twice with PBST (PBS, 0.05% Tween 20, 100 μl/well) and blocked with 25% Block Ace (Snow Brand Milk Products Co., Ltd., PBS, 100 μl/well). The plate was subjected to centrifugation (1000 rpm, 1 min) and incubated at room temperature for 4 hr or overnight at 4° C. The plate was washed twice with PBST (PBS, 0.05% Tween 20, 100 μl/well), and biotinylated human TTR (stock solution concentration 1.3 mg/ml) diluted 1000-fold with PBST was added at 20 μl/well. The plate was subjected to centrifugation (1000 rpm, 1 min) and stood still at room temperature for 1.5 hr or overnight at 4° C. The plate was washed 3 times with PEST (100 μl/well), and His-tagged human RBP4 (stock solution concentration 0.96 mg/ml) diluted 4000-fold with a reaction buffer (50 mM Tris-HCl, 150 mM NaCl, 0.005% Tween 20, 1 mM DTT, 0.1% BSA) was added at 10 μl/well. The dilution series (8 doses from 10 mM, 200-fold concentration) of the compound was prepared with DMSO, and 1 μl of each was added to a reaction buffer (200 μl) containing retinol (0.5 μM) (Sigma-Aldrich Co.). A reaction buffer (200 μl) containing retinol and added with DMSO was used as a positive control, and reaction buffer (200 μl) free of retinol and added with DMSO was used as a negative control. Mixed solutions of retinol and the compound were added to the plate at 15 μl/well. The mixture was stirred in a platemixer, subjected to centrifugation (1000 rpm, 1 min) and reacted at room temperature for 2 hr. A 35% Block Ace solution diluted with the reaction buffer was added at 10 μl/well, centrifuged (1000 rpm, 1 min) and reacted at room temperature for 30 min. The plate was washed 3 times with PBST (100 μl/well) and SuperSignal ELISA Femto Maximum Sensitivity Substrate reagent (PIERCE) was added at 30 μl/well, and the luminescence was measured by a platereader (Wallac).
The binding activity rate of the compound was determined by 100×(test compound value−negative control value)/(positive control value−negative control value). The binding inhibitory activity (IC50) was calculated from the binding activity rate at each compound concentration using a graph drawing software, Prism (GraphPad Software Inc.).

O=C(O)CO[C@H]1CCN(c2cc(C(F)(F)F)cc(C(F)(F)F)c2)C1 [Example 16, ({(3S)-1-[3,5-bis(trifluoromethyl)phenyl]pyrrolidin-3-yl}oxy)acetic acid]
RBP4 (% of initial/Control) 0 hr later (RBP4): 100.0 ± 11.0 % of initial/Control | RBP4 (% of initial/Control) 4 hr later (RBP4): 39.5 ± 0.6 % of initial/Control | RBP4 (% of initial/Control) 7 hr later (RBP4): 39.6 ± 0.4 % of initial/Control | RBP4 (% of initial/Control) 24 hr later (RBP4): 37.5 ± 0.4 % of initial/Control | blood glucose level (Zucker fa/fa rats): 275.9 ± 127.5 mg/dL | glycated hemoglobin change (%) (Zucker fa/fa rats): −0.58 ± 0.59% | RBP4 (Zucker fa/fa rats): 5.7 ± 0.1 µg/mL | IC50 (human RBP4): 28 nM

O=C(O)CO[C@@H]1CCN(c2cc(C(F)(F)F)cc(C(F)(F)F)c2)C1 [Example 17, ({(3R)-1-[3,5-bis(trifluoromethyl)phenyl]pyrrolidin-3-yl}oxy)acetic acid]
RBP4 (% of initial/Control) 0 hr later (RBP4): 100.0 ± 7.1 % of initial/Control | RBP4 (% of initial/Control) 4 hr later (RBP4): 42.2 ± 0.6 % of initial/Control | RBP4 (% of initial/Control) 7 hr later (RBP4): 40.5 ± 0.2 % of initial/Control | RBP4 (% of initial/Control) 24 hr later (RBP4): 38.6 ± 0.8 % of initial/Control | blood glucose level (Zucker fa/fa rats): 255.4 ± 106.7 mg/dL | glycated hemoglobin change (%) (Zucker fa/fa rats): −0.60 ± 0.39% | RBP4 (Zucker fa/fa rats): 6.0 ± 0.1 µg/mL | IC50 (human RBP4): 20 nM
